In patent publication US11760733B2, “Small molecule regulators of mitochondrial fusion and methods of use thereof” (Washington University, priority 2017, dated 2023):
“Also recorded” adds a separate entry of the source.

System: Mfn2 null MEFs
Experiment: Mitochondrial elongation (aspect ratio) fusogenicity assay
Type: cell-based, mouse
Conditions: not given
Text: A cultured murine embryonic fibroblast assay system was used in which mitochondrial elongation (an increase in aspect ratio) reflects enhanced mitochondrial fusion.
A pharmacophore model was generated based on the interactions of HR1 and HR2 domains in the calculated structural model of Mfn2 in the closed conformation. The key features included hydrophobic interactions involving Mfn2 HR1: Val372 and Met376, and aromatic interactions and hydrogen bonding involving Mfn2 HR1 His380. […] A library comprising ˜14 million commercially available compounds was prepared in silico and evaluated using PHASE to fit these criteria. Top ranked hits were clustered, and filtered based on pharmacological properties using Qikprop. The top 55 (see TABLE 4) commercially available small molecules conforming to the model were selected for functional screening and purchased in 1 mg aliquots. Each compound was dissolved to a stock concentration of 10 mM in DMSO and applied to Mfn2 null MEFs overnight at a final concentration of 1 mM. […] Images were acquired by confocal microscopy. Each compound was scored for fusogenicity (see e.g., FIG. 24A) and % cell death (see e.g., FIG. 24B).
Wild-type MEFs were prepared from E10.5 c57/bl6 mouse embryos. […] MEFs were subcultured in DMEM (4.5 g/L glucose) plus 10% fetal bovine serum, 1× nonessential amino acids, 2 mM L-glutamine, 100U/ml penicillin and 100 ug/ml streptomycin.
Cells were excited with 408 nm (Hoechst), […] (MitoTracker Green and Calcein AM, GFP), or 637 nm (TMRE, MitoTracker Orange, Ethidium homodimer-1, and AF594-Dextran) laser diodes. For mitochondrial elongation studies mitochondrial aspect ratio (long axis/short axis) was calculated using automated edge detection and Image J software. Mitochondrial depolarization was calculated as % of green mitochondria visualized on MitoTracker Green and TMRE merged images, expressed as green/(green+yellow mitochondria)×100.

Question: Which “fusogenic activity (mitochondrial elongation), in words” value does the source give for O=C1CC(SCCc2nc3ccccc3[nH]2)C(=O)N1c1cccc(F)c1 (stereo not drawn) [D9] here?
Answer: no true fusogenic activity; also recorded: failed validation in the secondary screen

Same assay, conditions: Mus musculus; read-out: % long compare to B

Question: For Cc1ccccc1-n1c(SCC(=O)Nc2sc3c(c2C(N)=O)CCCC3)nnc1-c1cccnc1 [1-E12, 2-(2-{[4-(2-methylphenyl)-5-(pyridin-3-yl)-4H-1,2,4-triazol-3-yl]sulfanyl}acetamido)-4,5,6,7-tetrahydro-1-benzothiophene-3-carboxamide], which Emax is on record?
Answer: -3%

Question: With CC1CCCCC1NC(=O)NCCSCc1ccccc1 (stereo not drawn) [A10, 1-[2-(benzylsulfanyl)ethyl]-3-(2-methylcyclohexyl)urea] as the compound, how does the Emax read?
Answer: 72%

Question: With Cc1cccc(NC(=O)CSCC(=O)N(Cc2ccc(N(C)C)cc2)C(C)C)c1 [B12, N-{[4-(dimethylamino)phenyl]methyl}-2-({[(3-methyl-phenyl)carbamoyl]methyl}sulfanyl)-N-(propan-2-yl)acetamide] as the compound, how does the Emax read?
Answer: 26%

Question: Which Emax does the source give for NC(=O)c1c(NC(=O)CSc2nnc(-c3ccccc3F)n2C2CC2)sc2c1CCC2 [1-A2, 2-(2-{[4-cyclopropyl-5-(2-fluorophenyl)-4H-1,2,4-triazol-3-yl]sulfanyl}acetamido)-4H,5H,6H-cyclopenta[b]thiophene-3-carboxamide] here?
Answer: -23%

Question: With Cc1occc1-c1nnc(SCC(=O)Nc2sc3c(c2C(N)=O)CCC3)n1-c1ccccc1 [1-D10, 2-(2-{[5-(2-methylfuran-3-yl)-4-phenyl-4H-1,2,4-triazol-3-yl]sulfanyl}acetamido)-4H,5H,6H-cyclopenta[b]thiophene-3-carboxamide] as the compound, how does the Emax read?
Answer: 17%

Question: With CCn1c(SC(C)C(=O)Nc2sc3c(c2C(N)=O)CCC3)nnc1-c1ccoc1C (stereo not drawn) [1-A6, 2-(2-{[4-ethyl-5-(2-methylfuran-3-yl)-4H-1,2,4-triazol-3-yl]sulfanyl}propanamido)-4H,5H,6H-cyclopenta[b]thiophene-3-carboxamide] as the compound, how does the Emax read?
Answer: -31%

Question: Which Emax does the source give for Cc1ccc(-n2c(C)nnc2SCC(=O)Nc2sc3c(c2C(N)=O)CCCC3)cc1 [1-D3, 2-(2-{[5-methyl-4-(4-methylphenyl)-4H-1,2,4-triazol-3-yl]sulfanyl}acetamido)-4,5,6,7-tetrahydro-1-benzothiophene-3-carboxamide] here?
Answer: 1%

Question: With COCCn1c(SC(C)C(=O)Nc2sc3c(c2C(N)=O)CCC3)nnc1-c1ccncc1 (stereo not drawn) [1-B12, 2-(2-{[4-(2-methoxyethyl)-5-(pyridin-4-yl)-4H-1,2,4-triazol-3-yl]sulfanyl}propanamido)-4H,5H,6H-cyclopenta[b]thiophene-3-carboxamide] as the compound, how does the Emax read?
Answer: -1%

Question: Which Emax does the source give for CC1CCc2c(sc(NC(=O)CSc3nnc(C4CC4)n3-c3ccccc3)c2C(N)=O)C1 (stereo not drawn) [1-D5, 2-{2-[(5-cyclopropyl-4-phenyl-4H-1,2,4-triazol-3-yl)sulfanyl]acetamido}-6-methyl-4,5,6,7-tetrahydro-1-benzothiophene-3-carboxamide] here?
Answer: 2%

Question: With Cc1ccccc1-n1c(SCC(=O)Nc2sc3c(c2C(N)=O)CCC3)nnc1-c1ccncc1 [1-H1, 2-(2-{[4-(2-methylphenyl)-5-(pyridin-4-yl)-4H-1,2,4-triazol-3-yl]sulfanyl}acetamido)-4H,5H,6H-cyclopenta[b]thiophene-3-carboxamide] as the compound, how does the Emax read?
Answer: -3%

Question: For NC(=O)c1c(NC(=O)CSc2nnc3n2CCCCC3)sc2c1CCCC2 [1-G10, 2-(2-{5H,6H,7H,8H,9H-[1,2,4]triazolo[4,3-a]azepin-3-ylsulfanyl}acetamido)-4,5,6,7-tetrahydro-1-benzothiophene-3-carboxamide], which Emax is on record?
Answer: -3%

Question: With O=C(Nc1cc(CSCCOC(=O)C2C3CCCCC32)ccn1)C1C2CCCCC21 (stereo not drawn) [A12, 2-{[(2-{bicyclo[4.1.0]heptane-7-amido}pyridin-4-yl)methyl]sulfanyl}ethyl bicyclo[4.1.0]heptane-7-carboxylate] as the compound, how does the Emax read?
Answer: 31%

Question: For NC(=O)c1c(NC(=O)CSc2nnc(C3CC3)n2C2CC2)sc2c1CCCC2 [2-A2, 2-{2-[(dicyclopropyl-4H-1,2,4-triazol-3-yl)sulfanyl]acetamido}-4,5,6,7-tetrahydro-1-benzothiophene-3-carboxamide], which Emax is on record?
Answer: 4%

Question: With CC(c1cccc([N+](=O)[O-])c1)N(C)CC(=O)NCCSCc1ccccc1C#N (stereo not drawn) [B05, N-(2-{[(2-cyanophenyl)methyl]sulfanyl}ethyl)-2-{methyl[1-(3-nitrophenyl)ethyl]amino}acetamide] as the compound, how does the Emax read?
Answer: 15%

Question: For CCn1c(SCC(=O)Nc2sc3c(c2C(N)=O)CCC3)nnc1-c1ccc(Cl)cc1 [1-A1, 2-(2-{[5-(4-chlorophenyl)-4-ethyl-4H-1,2,4-triazol-3-yl]sulfanyl}acetamido)-4H,5H,6H-cyclopenta[b]thiophene-3-carboxamide], which Emax is on record?
Answer: 11%

Question: Which Emax does the source give for Cn1c(SCC(=O)Nc2sc3c(c2C(N)=O)CCC3)nnc1-c1ccc(Cl)cc1 [1-H2, 2-(2-{[5-(4-chlorophenyl)-4-methyl-4H-1,2,4-triazol-3-yl]sulfanyl}acetamido)-4H,5H,6H-cyclopenta[b]thiophene-3-carboxamide] here?
Answer: 0%

Question: With NC(=O)c1c(NC(=O)CSc2nnc(-c3cccnc3)n2-c2ccccc2)sc2c1CCCC2 [1-G3, 2-(2-{[4-phenyl-5-(pyridin-3-yl)-4H-1,2,4-triazol-3-yl]sulfanyl}acetamido)-4,5,6,7-tetrahydro-1-benzothiophene-3-carboxamide] as the compound, how does the Emax read?
Answer: 4%

Same assay, conditions: rank by aspect ratio among 44 soluble compounds

Question: For CC(c1cccc([N+](=O)[O-])c1)N(C)CC(=O)NCCSCc1ccccc1C#N (stereo not drawn) [drawing 250], which “Fusogenicity Rank” value is on record?
Answer: 16

System: not listed separately
Experiment: Solubility of library compounds in DMSO stock
Type: physicochemical
Conditions: stock concentration of 10 mM in DMSO
Description: A pharmacophore model was generated based on the interactions of HR1 and HR2 domains in the calculated structural model of Mfn2 in the closed conformation. The key features included hydrophobic interactions involving Mfn2 HR1: Val372 and Met376, and aromatic interactions and hydrogen bonding involving Mfn2 HR1 His380. […] A library comprising ˜14 million commercially available compounds was prepared in silico and evaluated using PHASE to fit these criteria. Top ranked hits were clustered, and filtered based on pharmacological properties using Qikprop. The top 55 (see TABLE 4) commercially available small molecules conforming to the model were selected for functional screening and purchased in 1 mg aliquots. Each compound was dissolved to a stock concentration of 10 mM in DMSO and applied to Mfn2 null MEFs overnight at a final concentration of […]. Eleven of the library members were not soluble in DMSO at the required concentration. The 44 fully soluble compounds were screened in groups of 6 at a time for cytotoxicity (calcein AM/ethidium homodimer staining; ThermoFisher LIVE/DEAD Assay cat # L3224) and fusogenicity (increase in mitochondrial aspect ratio; MitoTracker Orange staining) compared to cells treated overnight with […] of the parent HR1 367-384 mitofusin agonist peptide (positive control) or vehicle (DMSO). Images were acquired by confocal microscopy. Each compound was scored for fusogenicity (see e.g., FIG. 24A) and % cell death (see e.g., FIG. 24B). Pharmacophore model fit generally correlated with actual fusogenic activity (Pearson correlation coefficient r=0.214; see e.g., FIG. 24A, inset; TABLE 4).

Question: For CCc1nnc(SC(CC)C(=O)N(CC)c2cccc(C)c2)c2cc3occc3n12 (stereo not drawn) [N-ethyl-2-({12-ethyl-5-oxa-1,10,11-triazatricyclo[6.4.0.0^2,^6]dodeca-2(6),3,7,9,11-pentaen-9-yl}sulfanyl)-N-(3-methylphenyl)butanamide], which “Solubility in DMSO” value is on record?
Answer: Insoluble

Question: For CC(=O)NC12CC3CC(C1)CC(C(=O)NCCSCc1ccc(C)cc1)(C3)C2 [3-acetamido-N-(2-{[(4-methylphenyl)methyl]sulfanyl}ethyl)adamantane-1-carboxamide], which “Solubility in DMSO” value is on record?
Answer: Insoluble

Question: With Cc1ccc(C(=O)C(C)Sc2nnc3c(=O)n(-c4ccccc4)ccn23)cc1C (stereo not drawn) [3-{[1-(3,4-dimethylphenyl)-1-oxopropan-2-yl]sulfanyl}-7-phenyl-7H,8H-[1,2,4]triazolo[4,3-a]pyrazin-8-one] as the compound, how does the “Solubility in DMSO” value read?
Answer: Insoluble

Question: For Cc1ccc(C(=O)C(C)Sc2nnc3c(=O)n(-c4ccc(Br)cc4)ccn23)cc1C (stereo not drawn) [7-(4-bromophenyl)-3-{[1-(3,4-dimethylphenyl)-1-oxopropan-2-yl]sulfanyl}-7H,8H-[1,2,4]triazolo[4,3-a]pyrazin-8-one], which “Solubility in DMSO” value is on record?
Answer: Insoluble

Question: With Cc1ccc(CSCCNC(=O)C2CCN(c3ccc4nnc(C(F)(F)F)n4n3)CC2)cc1 [N-(2-{[(4-methylphenyl)methyl]sulfanyl}ethyl)-1-[3-(trifluoromethyl)-[1,2,4]triazolo[4,3-b]pyridazin-6-yl]piperidine-4-carboxamide] as the compound, how does the “Solubility in DMSO” value read?
Answer: Insoluble

Question: With Cc1ccc(SC(C)C(=O)Nc2ccc(NS(=O)(=O)c3ccc4c(c3)OCCCO4)cc2)cc1 (stereo not drawn) [N-[4-(3,4-dihydro-2H-1,5-benzodioxepine-7-sulfonamido)phenyl]-2-[(4-methylphenyl)sulfanyl]propanamide] as the compound, how does the “Solubility in DMSO” value read?
Answer: Insoluble

Question: With CC(Sc1nc(C2CC2)nc2c1c(=O)[nH]c(=O)n2C1CC1)C(=O)NCC1CCCCC1 (stereo not drawn) [N-(cyclohexylmethyl)-2-({2,8-dicyclopropyl-5,7-dioxo-5H,6H,7H,8H-pyrimido[4,5-d][1,3]diazin-4-yl}sulfanyl)propanamide] as the compound, how does the “Solubility in DMSO” value read?
Answer: Insoluble

Question: For COc1cc(Cl)c(C)cc1N1C(=O)[C@@H]2C[C@H]1CN2Cc1cccn1-c1ncccn1 [(1S,4S)-2-(4-chloro-2-methoxy-5-methylphenyl)-5-{[1-(pyrimidin-2-yl)-1H-pyrrol-2-yl]methyl}-2,5-diazabicyclo[2.2.1]heptan-3-one], which “Solubility in DMSO” value is on record?
Answer: Insoluble
